# In publication PMC4599313 (Journal of the American Chemical Society, 2015):
# Tests used:
# Assay type in all cases: biochemical
# PglH = target: T1, PglH (Campylobacter jejuni, UniProt Q0P9C5); experiment: normal-phase HPLC of [3H]-labelled glycan; details: [3H]-labelled Und-PP-diNAcBac-GalNAc-GalNAz acceptor
# T1 sequence (Q0P9C5 1-359): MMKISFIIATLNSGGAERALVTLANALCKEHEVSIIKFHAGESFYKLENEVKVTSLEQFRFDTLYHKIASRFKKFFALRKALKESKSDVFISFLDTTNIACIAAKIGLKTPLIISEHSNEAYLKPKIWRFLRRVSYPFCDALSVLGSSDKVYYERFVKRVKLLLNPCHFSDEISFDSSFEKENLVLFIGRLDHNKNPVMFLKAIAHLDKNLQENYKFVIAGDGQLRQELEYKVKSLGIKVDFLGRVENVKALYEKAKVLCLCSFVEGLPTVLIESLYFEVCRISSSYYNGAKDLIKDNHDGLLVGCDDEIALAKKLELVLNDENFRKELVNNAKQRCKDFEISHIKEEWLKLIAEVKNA
# PglJ = target: T2, PglJ (Campylobacter jejuni, UniProt Q0P9C7); experiment: HPLC and scintillation counting of [3H]-labelled product; details: Und-PP-diNAcBac-[3H]-GalNAc acceptor; 100 uM UDP-sugar; PglJ 90 nM
# T2 sequence (Q0P9C7 1-365): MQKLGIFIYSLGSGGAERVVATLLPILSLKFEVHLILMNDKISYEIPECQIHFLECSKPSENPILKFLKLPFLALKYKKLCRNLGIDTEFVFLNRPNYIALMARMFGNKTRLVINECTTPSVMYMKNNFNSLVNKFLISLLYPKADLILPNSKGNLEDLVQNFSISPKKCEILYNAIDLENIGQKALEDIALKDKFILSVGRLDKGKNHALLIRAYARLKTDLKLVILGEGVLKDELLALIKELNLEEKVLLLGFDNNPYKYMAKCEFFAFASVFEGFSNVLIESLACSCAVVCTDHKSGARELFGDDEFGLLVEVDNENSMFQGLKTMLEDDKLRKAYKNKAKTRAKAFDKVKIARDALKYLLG
# PglC = target: T3, PglC (Campylobacter jejuni, UniProt Q0P9D0); experiment: capillary electrophoresis of APTS-labelled monosaccharide; details: Und-P acceptor; 60 min; PglC 10 nM
# T3 sequence (Q0P9D0 1-200): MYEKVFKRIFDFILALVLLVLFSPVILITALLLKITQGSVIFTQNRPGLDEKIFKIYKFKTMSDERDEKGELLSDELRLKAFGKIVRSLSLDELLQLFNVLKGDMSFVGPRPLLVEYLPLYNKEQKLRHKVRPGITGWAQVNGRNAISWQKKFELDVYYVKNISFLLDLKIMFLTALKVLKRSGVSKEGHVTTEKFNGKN
structure (smiles),measurement,setting,value
CC(=O)N[C@H]1[C@@H](OP(=O)(O)OP(=O)(O)OC[C@H]2O[C@@H](n3ccc(=O)[nH]c3=O)[C@H](O)[C@@H]2O)O[C@H](CO)[C@H](O)[C@@H]1O [UDP-GalNAc],normal-phase HPLC of [3H]-labelled glycan,PglH,the tolerance of PglH was tested by incubating enzyme with UDP-GalNAc and UDP-GalNAz
[N-]=[N+]=NCC(=O)N[C@H]1[C@@H](OP(=O)(O)OP(=O)(O)OC[C@H]2O[C@@H](n3ccc(=O)[nH]c3=O)[C@H](O)[C@@H]2O)O[C@H](CO)[C@H](O)[C@@H]1O [UDP-GalNAz],HPLC and scintillation counting of [3H]-labelled product,PglJ,PglJ efficiently incorporates an azido sugar into the Und-PP-trisaccharide
CC(=O)N[C@H]1[C@@H](OP(=O)(O)OP(=O)(O)OC[C@H]2O[C@@H](n3ccc(=O)[nH]c3=O)[C@H](O)[C@@H]2O)O[C@H](C)[C@@H](NC(C)=O)[C@@H]1O [UDP-diNAcBac],capillary electrophoresis of APTS-labelled monosaccharide,PglC,"the conversion was low for both, UDP-diNAcBac and UDP-2-NAc-4-NAzBac"
